Data published in patent US10689378B2, “Triazolopyridine compounds and uses thereof” (Novartis AG, priority 2016, dated 2020).
Where two headings read alike, the source gives them in different places.

How the values were obtained:
[1] = molecular target: T1, EED (1-441)-His protein (Homo sapiens, UniProt O75530); experiment: EED-H3K27Me3 peptide competition binding assay by AlphaScreen
T1 construct: 30 nM EED (1-441)-His protein
How it was run: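 Serially diluted compound (12 points, 3-fold) incubated 20 min with 30 nM EED(1-441)-His and 15 nM biotin-H3K27Me3(19-33) peptide in 25 mM HEPES pH 8, 0.02% Tween-20, 0.5% BSA. Ni-chelate acceptor/streptavidin donor beads (10 μg/mL each) added, 1 h rt dark; 615 nm emission normalized to controls, dose-response fit for IC50.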

[2] = molecular target: wild type PRC2 (wtPRC2) complex (Homo sapiens, UniProt O75530); experiment: EED LC-MS assay (SAH production by PRC2); type: biochemical
Sequence of wild type PRC2 (wtPRC2) complex (O75530 whole entry): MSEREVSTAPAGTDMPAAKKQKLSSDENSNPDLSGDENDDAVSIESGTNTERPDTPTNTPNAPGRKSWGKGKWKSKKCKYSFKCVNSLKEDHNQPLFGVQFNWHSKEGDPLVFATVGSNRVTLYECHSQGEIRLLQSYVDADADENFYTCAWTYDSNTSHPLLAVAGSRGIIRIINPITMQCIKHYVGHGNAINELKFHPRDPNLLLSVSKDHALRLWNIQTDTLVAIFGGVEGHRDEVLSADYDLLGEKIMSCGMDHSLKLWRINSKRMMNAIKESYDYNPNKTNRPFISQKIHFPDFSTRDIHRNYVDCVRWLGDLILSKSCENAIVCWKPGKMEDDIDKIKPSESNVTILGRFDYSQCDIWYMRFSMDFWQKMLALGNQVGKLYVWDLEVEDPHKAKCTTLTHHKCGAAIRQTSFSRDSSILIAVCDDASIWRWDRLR
Sequence of wild type PRC2 (wtPRC2) complex (Q15910 whole entry partner): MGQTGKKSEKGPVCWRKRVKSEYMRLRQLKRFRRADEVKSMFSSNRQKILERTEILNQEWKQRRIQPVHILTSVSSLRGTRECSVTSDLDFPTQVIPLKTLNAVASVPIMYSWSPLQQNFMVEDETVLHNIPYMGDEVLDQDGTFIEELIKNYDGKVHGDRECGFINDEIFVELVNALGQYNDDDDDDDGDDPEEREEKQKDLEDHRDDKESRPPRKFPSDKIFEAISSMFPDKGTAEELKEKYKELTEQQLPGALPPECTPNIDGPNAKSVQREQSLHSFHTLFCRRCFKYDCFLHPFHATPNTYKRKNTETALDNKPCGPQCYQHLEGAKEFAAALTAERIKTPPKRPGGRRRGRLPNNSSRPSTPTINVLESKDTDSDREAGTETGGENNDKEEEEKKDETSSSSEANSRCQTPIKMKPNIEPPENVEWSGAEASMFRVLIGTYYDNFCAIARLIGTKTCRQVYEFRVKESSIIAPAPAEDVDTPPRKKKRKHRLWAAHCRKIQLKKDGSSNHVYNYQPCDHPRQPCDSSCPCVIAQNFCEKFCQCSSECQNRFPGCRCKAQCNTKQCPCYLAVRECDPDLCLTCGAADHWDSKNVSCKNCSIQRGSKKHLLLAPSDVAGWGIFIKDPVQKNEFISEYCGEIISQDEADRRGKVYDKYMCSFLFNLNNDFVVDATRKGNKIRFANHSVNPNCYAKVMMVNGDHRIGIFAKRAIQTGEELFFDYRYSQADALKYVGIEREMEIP
Sequence of wild type PRC2 (wtPRC2) complex (Q15022 whole entry partner): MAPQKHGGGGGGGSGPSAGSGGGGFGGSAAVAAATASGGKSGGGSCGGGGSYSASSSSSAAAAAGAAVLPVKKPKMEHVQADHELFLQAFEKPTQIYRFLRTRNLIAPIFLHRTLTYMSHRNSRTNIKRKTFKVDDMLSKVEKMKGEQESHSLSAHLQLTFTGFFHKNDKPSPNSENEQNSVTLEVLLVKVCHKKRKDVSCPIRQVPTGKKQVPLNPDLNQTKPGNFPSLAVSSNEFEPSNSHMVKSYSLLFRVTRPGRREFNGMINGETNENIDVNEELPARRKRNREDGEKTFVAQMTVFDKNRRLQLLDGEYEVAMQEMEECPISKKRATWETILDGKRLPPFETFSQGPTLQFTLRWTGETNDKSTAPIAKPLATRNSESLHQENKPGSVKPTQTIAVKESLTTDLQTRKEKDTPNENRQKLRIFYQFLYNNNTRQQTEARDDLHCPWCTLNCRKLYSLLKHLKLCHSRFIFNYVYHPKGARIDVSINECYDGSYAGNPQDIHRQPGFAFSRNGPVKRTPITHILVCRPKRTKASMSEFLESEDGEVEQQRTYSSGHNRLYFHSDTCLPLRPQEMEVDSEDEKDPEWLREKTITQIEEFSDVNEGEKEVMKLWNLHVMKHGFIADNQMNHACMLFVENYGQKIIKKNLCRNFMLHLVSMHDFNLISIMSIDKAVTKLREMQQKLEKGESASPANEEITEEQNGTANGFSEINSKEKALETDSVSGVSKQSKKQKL
Sequence of wild type PRC2 (wtPRC2) complex (Q09028 whole entry partner): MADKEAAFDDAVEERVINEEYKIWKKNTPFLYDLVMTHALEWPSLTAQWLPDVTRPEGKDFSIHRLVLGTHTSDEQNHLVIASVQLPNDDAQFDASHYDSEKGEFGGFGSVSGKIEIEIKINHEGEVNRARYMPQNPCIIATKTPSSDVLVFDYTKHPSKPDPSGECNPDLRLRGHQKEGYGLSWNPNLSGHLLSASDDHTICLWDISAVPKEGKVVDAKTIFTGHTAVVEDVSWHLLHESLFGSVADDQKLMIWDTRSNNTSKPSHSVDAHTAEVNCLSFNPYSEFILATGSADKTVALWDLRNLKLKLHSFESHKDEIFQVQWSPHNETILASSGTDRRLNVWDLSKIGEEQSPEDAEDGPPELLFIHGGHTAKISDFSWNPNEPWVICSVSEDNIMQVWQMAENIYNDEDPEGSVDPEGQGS
Sequence of wild type PRC2 (wtPRC2) complex (Q6ZN18 whole entry partner): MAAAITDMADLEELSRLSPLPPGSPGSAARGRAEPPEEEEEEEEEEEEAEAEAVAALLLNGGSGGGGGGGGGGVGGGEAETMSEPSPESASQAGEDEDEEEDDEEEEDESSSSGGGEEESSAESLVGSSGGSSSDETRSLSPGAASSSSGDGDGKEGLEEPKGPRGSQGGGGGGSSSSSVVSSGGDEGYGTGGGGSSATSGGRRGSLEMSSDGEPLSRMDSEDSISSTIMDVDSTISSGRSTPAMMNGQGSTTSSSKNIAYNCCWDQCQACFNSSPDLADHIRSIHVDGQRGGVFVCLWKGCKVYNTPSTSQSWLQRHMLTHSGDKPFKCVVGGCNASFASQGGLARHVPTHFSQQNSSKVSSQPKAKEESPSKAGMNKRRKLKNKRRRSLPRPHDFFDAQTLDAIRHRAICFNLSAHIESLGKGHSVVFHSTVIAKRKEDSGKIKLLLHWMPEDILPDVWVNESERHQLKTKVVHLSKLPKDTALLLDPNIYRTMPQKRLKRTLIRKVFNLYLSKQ
How it was run: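 LC-MS/MS readout of SAH (d4-SAH standard) after TFA quench gives PRC2 activity, normalized to controls and fitted to dose-response for IC50. Reaction: 12 nM EZH2/SUZ12/EED/Rbap48/AEBP complex, 1 μM SAM, 1.5 μM H3[21-44] peptide, 120 min rt, 20 min compound preincubation.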

[3] = system: H3K27 methylation in G401 cell; experiment: ELISA (H3K27 methylation) assay in G401 cells; type: cell-based, human; settings: Homo sapiens
How it was run: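 IC50 from dose-response fit of percent inhibition relative to DMSO, using H3K27me3/me2 ELISA signal (ECL) normalized to histone H3. Histones HCl-extracted after 48 h compound exposure of G401 cells at up to 20 μM, 8- or 12-point 3-fold series.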

[4] = EED-H3K27Me3 peptide competition, AlphaScreen, read-out: (a) IC50 EED Alphascreen binding Qualified
[5] = PRC2 LC-MS assay, read-out: (b) IC50 EED LC-MS Qualified
[6] = G-401, H3K27 methylation ELISA, read-out: (c) IC50 ELISA Qualified
[7] = read-out: (a) IC50, EED Alphascreen binding Qualified
[8] = read-out: (b) IC50, EED LC-MS Qualified
[9] = G-401, read-out: (c) IC50, ELISA Qualified

T1 sequence (O75530 whole entry): as the sequence (O75530 whole entry) above

Row | IC50 [1, 4] [nM] | IC50 [2, 5] [nM] | IC50 [3, 6] [nM] | IC50 [1, 7] [nM] | IC50 [2, 8] [nM] | IC50 [3, 9] [nM] | SMILES
1 | 46.5 | 366 | 71.7 | – | – | – | COc1cccc(F)c1CNc1ccc(-c2ccc(F)cc2C)c2nncn12 [Example 201, 8-(4-fluoro-2-methylphenyl)-N-(2-fluoro-6-methoxybenzyl)-[1,2,4]triazolo[4,3-a] pyridin-5-amine]
2 | – | – | – | 39.2 | 239 | 90.1 | COc1ccccc1CNc1ccc(-c2ccc(N3CCN(C(C)C)CC3)nc2)c2nncn12 [Example 87, 8-(6-(4-isopropylpiperazin-1-yl)pyridin-3-yl)-N-(2-methoxybenzyl)-[1,2,4] triazolo[4,3-a]pyridin-5-amine]
3 | 35 | 149 | 26.3 | – | – | – | COc1cccc(F)c1CNc1ccc(-c2ccc(CCC(=O)N(C)C)nc2)c2nncn12 [Example 234, 3-(5-(5-((2-fluoro-6-methoxybenzyl)amino)-[1,2,4]triazolo[4,3-a]pyridin-8-yl)pyridin-2-yl)-N,N-dimethyl propanamide]
4 | – | – | – | 15.9 | 183 | 39.5 | COc1ccccc1CNc1ccc(-c2ccc(S(=O)(=O)C(C)C)cc2)c2nncn12 [Example 57, 8-(4-(isopropylsulfonyl)phenyl)-N-(2-methoxybenzyl)-[1,2,4]triazolo[4,3-a] pyridin-5-amine]
5 | 24 | 48 | 24.1 | – | – | – | COc1cccc(F)c1CNc1ccc(-c2ccc(C(=O)N(C)C)cc2)c2nncn12 [Example 206, 4-(5-((2-fluoro-6-methoxybenzyl)amino)-[1,2,4]triazolo[4,3-a]pyridin-8-yl)-N,N-dimethylbenzamide]
6 | 15.8 | 75.1 | 12.1 | – | – | – | COc1cccc(F)c1CNc1ccc(-c2cc(F)ncc2C)c2nncn12 [Example 279, 8-(2-fluoro-5-methylpyridin-4-yl)-N-(2-fluoro-6-methoxybenzyl)-[1,2,4] triazolo[4,3-a]pyridin-5-amine]
7 | – | – | – | 43.6 | 321 | 66.7 | COc1ccccc1CNc1ccc(-c2c(C)noc2C)c2nncn12 [Example 62, 8-(3,5-dimethylisoxazol-4-yl)-N-(2-methoxybenzyl)-[1,2,4]triazolo[4,3-a]pyridin-5-amine]
8 | 12.5 | 523 | 25.5 | – | – | – | COc1cccc(F)c1CNc1ccc(-c2cccnc2C#N)c2nncn12 [Example 340, 3-(5-((2-fluoro-6-methoxybenzyl)amino)-[1,2,4]triazolo[4,3-a]pyridin-8-yl) picolinonitrile]
9 | 16.5 | 49.4 | 6.3 | – | – | – | COc1cccc(F)c1CNc1ccc(-c2ccc(C(=O)N(C)C)nc2)c2nncn12 [Example 194, 5-(5-((2-fluoro-6-methoxybenzyl)amino)-[1,2,4]triazolo[4,3-a]pyridin-8-yl)-N,N-dimethylpicolinamide]
10 | – | – | – | 13 | 87.7 | 23.1 | COc1ccccc1CNc1ccc(-c2ccc(CN3CCC3)cc2)c2nncn12 [Example 29, 8-(4-(azetidin-1-ylmethyl)phenyl)-N-(2-methoxybenzyl)-[1,2,4]triazolo[4,3-a] pyridin-5-amine]
11 | – | – | – | 31.1 | 323 | 53.2 | CCN1CCC(S(=O)(=O)c2ccc(-c3ccc(NCc4ccccc4OC)n4cnnc34)cn2)CC1 [Example 143, 8-(6-((1-ethylpiperidin-4-yl)sulfonyl)pyridin-3-yl)-N-(2-methoxybenzyl)-[1,2,4] triazolo[4,3-a]pyridin-5-amine]
12 | – | – | – | 32.2 | 181 | 81.2 | COc1cccc(F)c1CNc1ccc(-c2cnc(N3CCN(C(C)C)CC3)nc2)c2nncn12 [Example 131, N-(2-fluoro-6-methoxybenzyl)-8-(2-(4-isopropylpiperazin-1-yl)pyrimidin-5-yl)-[1,2,4]triazolo[4,3-a] pyridin-5-amine]
13 | 29 | 195 | 11.4 | – | – | – | COc1cccc(F)c1CNc1ccc(-c2ccnn2C2CC2)c2nncn12 [Example 292, 8-(1-cyclopropyl-1H-pyrazol-5-yl)-N-(2-fluoro-6-methoxybenzyl)-[1,2,4] triazolo[4,3-a]pyridin-5-amine]
14 | 20.4 | 520 | 16.5 | – | – | – | CNC(=O)c1cncc(-c2ccc(NCc3c(F)cccc3OC)n3cnnc23)c1 [Example 182, 5-(5-((2-fluoro-6-methoxybenzyl)amino)-[1,2,4]triazolo[4,3-a]pyridin-8-yl)-N-methylnicotinamide]
15 | – | – | – | 52.1 | 64.5 | 24.7 | COc1cccc(F)c1CNc1ccc(-c2c(C)nn(C)c2C)c2nncn12 [Example 124, N-(2-fluoro-6-methoxybenzyl)-8-(1,3,5-trimethyl-1H-pyrazol-4-yl)-[1,2,4] triazolo[4,3-a]pyridin-5-amine]
16 | – | – | – | 32.5 | 438 | 46.9 | COc1ccccc1CNc1ccc(-c2ccc(CN3CCOCC3)nc2)c2nncn12 [Example 38, N-(2-methoxybenzyl)-8-(6-(morpholinomethyl)pyridin-3-yl)-[1,2,4]triazolo[4,3-a] pyridin-5-amine]
17 | 13.6 | 56.1 | 16.6 | – | – | – | COc1ccc(-c2ccc(NCc3c(F)cccc3OC)n3cnnc23)c(C)n1 [Example 310, N-(2-fluoro-6-methoxybenzyl)-8-(6-methoxy-2-methylpyridin-3-yl)-[1,2,4] triazolo[4,3-a]pyridin-5-amine]
18 | – | – | – | 80.3 | 509 | 330 | COc1ccccc1CNc1ccc(-c2ccc(NS(C)(=O)=O)cc2)c2nncn12 [Example 82, N-(4-(5-((2-methoxybenzyl)amino)-[1,2,4]triazolo[4,3-a]pyridin-8-yl)phenyl) methanesulfonamide]
19 | 12.8 | 59.5 | 12.1 | – | – | – | COc1cccc(F)c1CNc1ccc(-c2cnn(C)c2CO)c2nncn12 [Example 336, (4-(5-((2-fluoro-6-methoxy benzyl)amino)-[1,2,4]triazolo[4,3-a]pyridin-8-yl)-1-methyl-1H-pyrazol-5-yl) methanol]
20 | 53.8 | 73 | 38.7 | – | – | – | COCc1cncc(-c2ccc(NCc3c(F)cccc3OC)n3cnnc23)c1 [Example 203, N-(2-fluoro-6-methoxybenzyl)-8-(5-(methoxymethyl)pyridin-3-yl)-[1,2,4]triazolo[4,3-a] pyridin-5-amine]
21 | – | – | – | 54.6 | 197 | 45 | COc1ccccc1CNc1ccc(-c2ccnc(N3CCN(C)CC3)c2)c2nncn12 [Example 67, N-(2-methoxybenzyl)-8-(2-(4-methylpiperazin-1-yl)pyridin-4-yl)-[1,2,4] triazolo[4,3-a]pyridin-5-amine]
22 | 23.3 | 230 | 66.7 | – | – | – | COc1cccc(F)c1CNc1ccc(-c2cc(F)ccc2C)c2nncn12 [Example 223, 8-(5-fluoro-2-methylphenyl)-N-(2-fluoro-6-methoxybenzyl)-[1,2,4]triazolo[4,3-a] pyridin-5-amine]
23 | – | – | – | 18.2 | 27.1 | 14.9 | CCN1CCC(S(=O)(=O)c2ccc(-c3ccc(NCc4c(F)cccc4OC)n4cnnc34)cn2)CC1 [Example 149, 8-(6-((1-ethylpiperidin-4-yl)sulfonyl)pyridin-3-yl)-N-(2-fluoro-6-methoxybenzyl)-[1,2,4]triazolo[4,3-a]pyridin-5-amine]
24 | 35.4 | 45.9 | 21.7 | – | – | – | COc1cccc(F)c1CNc1ccc(-c2cnc(N(C)C)nc2C)c2nncn12 [Example 260, 8-(2-(dimethylamino)-4-methylpyrimidin-5-yl)-N-(2-fluoro-6-methoxybenzyl)-[1,2,4]triazolo[4,3-a]pyridin-5-amine]
25 | 19.9 | 41.6 | 17.3 | – | – | – | COc1cccc(F)c1CNc1ccc(-c2ccc(CCO)nc2)c2nncn12 [Example 183, 2-(5-(5-((2-fluoro-6-methoxybenzyl)amino)-[1,2,4]triazolo[4,3-a]pyridin-8-yl)pyridin-2-yl)ethanol]
26 | 25.7 | 492 | 36.5 | – | – | – | CCOc1ncc(-c2ccc(NCc3c(F)cc(F)cc3OC)n3cnnc23)c(C)n1 [Example 343, N-(2,4-difluoro-6-methoxybenzyl)-8-(2-ethoxy-4-methylpyrimidin-5-yl)-[1,2,4]triazolo[4,3-a]pyridin-5-amine]
27 | 41.6 | 172 | 52.8 | – | – | – | COc1cccc(F)c1CNc1ccc(-c2c(C)n[nH]c2C)c2nncn12 [Example 187, 8-(3,5-dimethyl-1H-pyrazol-4-yl)-N-(2-fluoro-6-methoxybenzyl)-[1,2,4]triazolo[4,3-a] pyridin-5-amine]
